Reference: patent US10765114B2, “4-amino-6-(pyridyl and 2-substitutedphenyl)-picolinates and 6-amino-2-(pyridyl and 2-substitutedphenyl)-pyrimidine-4-carboxylates and their use as herbicides” (Dow AgroSciences LLC, priority 2013, dated 2020)

tested on: Key Broadleaf Weed and Crop Species; experiment: Post-Emergent Test II (Table 5); type: in vivo; settings: Abutilon theophrasti, post-emergence, 336 h, ABUTH: velvetleaf (Abutilon theophrasti), application rate 70 (kg ai/ha; footnote: g ai/ha), read-out: Visual Growth Reduction (%) 14 Days After Application ABUTH
Procedure, shortened: (§1)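 Growth stage at treatment: first or second true leaf. Application: compound in acetone/DMSO diluted into an adjuvant-containing aqueous mix, sprayed at 187 L/ha at several rates. Assessment: visual 0-100% injury at 14 days against untreated plants.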

Row | Compound | pest or weed control at 70 g/ha [%]
1 | COC(=O)c1nc(-c2ccc(C(F)(F)F)nc2F)cc(N)c1Cl [Compound 74] | 85 to 94

same assay, conditions: Abutilon theophrasti, post-emergence, 336 h, ABUTH: velvetleaf (Abutilon theophrasti), application rate 140 (kg ai/ha; footnote: g ai/ha), read-out: Visual Growth Reduction (%) 14 Days After Application ABUTH

Row | Compound | pest or weed control at 140 g/ha [%]
2 | COC(=O)c1nc(-c2ccc(C(F)(F)F)nc2F)cc(N)c1Cl [Compound 74] | 95 to 100

same assay, conditions: Brassica napus, post-emergence, 336 h, BRSSS: oilseed rape, canola (Brassica napus), application rate 70 (kg ai/ha; footnote: g ai/ha), read-out: Visual Growth Reduction (%) 14 Days After Application BRSSS

Row | Compound | pest or weed control at 70 g/ha [%]
3 | COC(=O)c1nc(-c2ccc(C(F)(F)F)nc2F)cc(N)c1Cl [Compound 74] | 30 to 44

same assay, conditions: Brassica napus, post-emergence, 336 h, BRSSS: oilseed rape, canola (Brassica napus), application rate 140 (kg ai/ha; footnote: g ai/ha), read-out: Visual Growth Reduction (%) 14 Days After Application BRSSS

Row | Compound | pest or weed control at 140 g/ha [%]
4 | COC(=O)c1nc(-c2ccc(C(F)(F)F)nc2F)cc(N)c1Cl [Compound 74] | 45 to 59

same assay, conditions: Chenopodium album, post-emergence, 336 h, CHEAL: lambsquarters (Chenopodium album), application rate 70 (kg ai/ha; footnote: g ai/ha), read-out: Visual Growth Reduction (%) 14 Days After Application CHEAL

Row | Compound | pest or weed control at 70 g/ha [%]
5 | COC(=O)c1nc(-c2ccc(C(F)(F)F)nc2F)cc(N)c1Cl [Compound 74] | 75 to 84

same assay, conditions: Chenopodium album, post-emergence, 336 h, CHEAL: lambsquarters (Chenopodium album), application rate 140 (kg ai/ha; footnote: g ai/ha), read-out: Visual Growth Reduction (%) 14 Days After Application CHEAL

Row | Compound | pest or weed control at 140 g/ha [%]
6 | COC(=O)c1nc(-c2ccc(C(F)(F)F)nc2F)cc(N)c1Cl [Compound 74] | 85 to 94

same assay, conditions: Euphorbia heterophylla, post-emergence, 336 h, EPHHL: wild poinsettia (Euphorbia heterophylla), application rate 70 (kg ai/ha; footnote: g ai/ha), read-out: Visual Growth Reduction (%) 14 Days After Application EPHHL

Row | Compound | pest or weed control at 70 g/ha [%]
7 | COC(=O)c1nc(-c2ccc(C(F)(F)F)nc2F)cc(N)c1Cl [Compound 74] | 0 to 29

same assay, conditions: Euphorbia heterophylla, post-emergence, 336 h, EPHHL: wild poinsettia (Euphorbia heterophylla), application rate 140 (kg ai/ha; footnote: g ai/ha), read-out: Visual Growth Reduction (%) 14 Days After Application EPHHL

Row | Compound | pest or weed control at 140 g/ha [%]
8 | COC(=O)c1nc(-c2ccc(C(F)(F)F)nc2F)cc(N)c1Cl [Compound 74] | 0 to 29

same assay, conditions: Helianthus annuus, post-emergence, 336 h, HELAN: sunflower (Helianthus annuus), application rate 70 (kg ai/ha; footnote: g ai/ha), read-out: Visual Growth Reduction (%) 14 Days After Application HELAN

Row | Compound | pest or weed control at 70 g/ha [%]
9 | COC(=O)c1nc(-c2ccc(C(F)(F)F)nc2F)cc(N)c1Cl [Compound 74] | 45 to 59

same assay, conditions: Helianthus annuus, post-emergence, 336 h, HELAN: sunflower (Helianthus annuus), application rate 140 (kg ai/ha; footnote: g ai/ha), read-out: Visual Growth Reduction (%) 14 Days After Application HELAN

Row | Compound | pest or weed control at 140 g/ha [%]
10 | COC(=O)c1nc(-c2ccc(C(F)(F)F)nc2F)cc(N)c1Cl [Compound 74] | 60 to 74

same assay, conditions: Viola tricolor, post-emergence, 336 h, VIOTR: wild pansy (Viola tricolor), application rate 70 (kg ai/ha; footnote: g ai/ha), read-out: Visual Growth Reduction (%) 14 Days After Application VIOTR

Row | Compound | pest or weed control at 70 g/ha [%]
11 | COC(=O)c1nc(-c2ccc(C(F)(F)F)nc2F)cc(N)c1Cl [Compound 74] | 0 to 29

same assay, conditions: Viola tricolor, post-emergence, 336 h, VIOTR: wild pansy (Viola tricolor), application rate 140 (kg ai/ha; footnote: g ai/ha), read-out: Visual Growth Reduction (%) 14 Days After Application VIOTR

Row | Compound | pest or weed control at 140 g/ha [%]
12 | COC(=O)c1nc(-c2ccc(C(F)(F)F)nc2F)cc(N)c1Cl [Compound 74] | 0 to 29

tested on: Key Grass and Sedge Weeds as well as Grass Crops; experiment: Post-Emergent Test II (Table 6); type: in vivo; settings: post-emergence, 336 h, CYPSS, 70 g ai/ha, 14 days after application, read-out: Visual Growth Reduction (%) 14 Days After Application CYPSS
Procedure, shortened: as §1

Row | Compound | pest or weed control at 70 g/ha [%]
13 | COC(=O)c1nc(-c2ccc(C(F)(F)F)nc2F)cc(N)c1Cl [Compound 74] | 0 to 29

same assay, conditions: post-emergence, 336 h, CYPSS, 140 g ai/ha, 14 days after application, read-out: Visual Growth Reduction (%) 14 Days After Application CYPSS

Row | Compound | pest or weed control at 140 g/ha [%]
14 | COC(=O)c1nc(-c2ccc(C(F)(F)F)nc2F)cc(N)c1Cl [Compound 74] | 0 to 29

same assay, conditions: post-emergence, 336 h, DIGSA: crabgrass (Digitaria sanguinalis), 70 g ai/ha, 14 days after application, read-out: Visual Growth Reduction (%) 14 Days After Application DIGSA

Row | Compound | pest or weed control at 70 g/ha [%]
15 | COC(=O)c1nc(-c2ccc(C(F)(F)F)nc2F)cc(N)c1Cl [Compound 74] | 0 to 29

same assay, conditions: post-emergence, 336 h, DIGSA: crabgrass (Digitaria sanguinalis), 140 g ai/ha, 14 days after application, read-out: Visual Growth Reduction (%) 14 Days After Application DIGSA

Row | Compound | pest or weed control at 140 g/ha [%]
16 | COC(=O)c1nc(-c2ccc(C(F)(F)F)nc2F)cc(N)c1Cl [Compound 74] | 0 to 29

same assay, conditions: post-emergence, 336 h, ECHSS, 70 g ai/ha, 14 days after application, read-out: Visual Growth Reduction (%) 14 Days After Application ECHSS

Row | Compound | pest or weed control at 70 g/ha [%]
17 | COC(=O)c1nc(-c2ccc(C(F)(F)F)nc2F)cc(N)c1Cl [Compound 74] | 0 to 29

same assay, conditions: post-emergence, 336 h, ECHSS, 140 g ai/ha, 14 days after application, read-out: Visual Growth Reduction (%) 14 Days After Application ECHSS

Row | Compound | pest or weed control at 140 g/ha [%]
18 | COC(=O)c1nc(-c2ccc(C(F)(F)F)nc2F)cc(N)c1Cl [Compound 74] | 45 to 59

same assay, conditions: post-emergence, 336 h, ORYSS (crop), 70 g ai/ha, 14 days after application, read-out: Visual Growth Reduction (%) 14 Days After Application ORYSS

Row | Compound | pest or weed control at 70 g/ha [%]
19 | COC(=O)c1nc(-c2ccc(C(F)(F)F)nc2F)cc(N)c1Cl [Compound 74] | 0 to 29

same assay, conditions: post-emergence, 336 h, ORYSS (crop), 140 g ai/ha, 14 days after application, read-out: Visual Growth Reduction (%) 14 Days After Application ORYSS

Row | Compound | pest or weed control at 140 g/ha [%]
20 | COC(=O)c1nc(-c2ccc(C(F)(F)F)nc2F)cc(N)c1Cl [Compound 74] | 0 to 29

same assay, conditions: post-emergence, 336 h, SETFA: giant foxtail (Setaria faberi), 70 g ai/ha, 14 days after application, read-out: Visual Growth Reduction (%) 14 Days After Application SETFA

Row | Compound | pest or weed control at 70 g/ha [%]
21 | COC(=O)c1nc(-c2ccc(C(F)(F)F)nc2F)cc(N)c1Cl [Compound 74] | 0 to 29

same assay, conditions: post-emergence, 336 h, SETFA: giant foxtail (Setaria faberi), 140 g ai/ha, 14 days after application, read-out: Visual Growth Reduction (%) 14 Days After Application SETFA

Row | Compound | pest or weed control at 140 g/ha [%]
22 | COC(=O)c1nc(-c2ccc(C(F)(F)F)nc2F)cc(N)c1Cl [Compound 74] | 0 to 29

same assay, conditions: post-emergence, 336 h, SORVU: grain sorghum (Sorghum vulgare), 70 g ai/ha, 14 days after application, read-out: Visual Growth Reduction (%) 14 Days After Application SORVU

Row | Compound | pest or weed control at 70 g/ha [%]
23 | COC(=O)c1nc(-c2ccc(C(F)(F)F)nc2F)cc(N)c1Cl [Compound 74] | 0 to 29

same assay, conditions: post-emergence, 336 h, SORVU: grain sorghum (Sorghum vulgare), 140 g ai/ha, 14 days after application, read-out: Visual Growth Reduction (%) 14 Days After Application SORVU

Row | Compound | pest or weed control at 140 g/ha [%]
24 | COC(=O)c1nc(-c2ccc(C(F)(F)F)nc2F)cc(N)c1Cl [Compound 74] | 45 to 59

same assay, conditions: post-emergence, 336 h, TRZSS (crop), 70 g ai/ha, 14 days after application, read-out: Visual Growth Reduction (%) 14 Days After Application TRZSS

Row | Compound | pest or weed control at 70 g/ha [%]
25 | COC(=O)c1nc(-c2ccc(C(F)(F)F)nc2F)cc(N)c1Cl [Compound 74] | 0 to 29

same assay, conditions: post-emergence, 336 h, TRZSS (crop), 140 g ai/ha, 14 days after application, read-out: Visual Growth Reduction (%) 14 Days After Application TRZSS

Row | Compound | pest or weed control at 140 g/ha [%]
26 | COC(=O)c1nc(-c2ccc(C(F)(F)F)nc2F)cc(N)c1Cl [Compound 74] | 0 to 29

same assay, conditions: post-emergence, 336 h, ZEAMX: maize, corn (Zea mays), 70 g ai/ha, 14 days after application, read-out: Visual Growth Reduction (%) 14 Days After Application ZEAMX

Row | Compound | pest or weed control at 70 g/ha [%]
27 | COC(=O)c1nc(-c2ccc(C(F)(F)F)nc2F)cc(N)c1Cl [Compound 74] | 0 to 29

same assay, conditions: post-emergence, 336 h, ZEAMX: maize, corn (Zea mays), 140 g ai/ha, 14 days after application, read-out: Visual Growth Reduction (%) 14 Days After Application ZEAMX

Row | Compound | pest or weed control at 140 g/ha [%]
28 | COC(=O)c1nc(-c2ccc(C(F)(F)F)nc2F)cc(N)c1Cl [Compound 74] | 30 to 44

tested on: not given; experiment: not given; settings: not given

Row | melting point [°C] | Compound
29 | 138 to 141 | COC(=O)c1nc(-c2ccc(C(F)(F)F)nc2F)cc(N)c1Cl [Compound 74]
